# How the values were obtained:
# Format in all cases: in vivo
# [1] = system: Lolium perenne (LOLPE); experiment: Glasshouse herbicide test, pre- and post-emergence, Lolium perenne; conditions: 250 g/h, evaluated after 13 days; for LOLPE POST, percentage damage caused to the plant (five point scale): post-emergence; for LOLPE PRE, percentage damage caused to the plant (five point scale): pre-emergence
# Procedure: (§1) Seeds of a variety of test species are sown in standard soil in pots (Lolium perenne (LOLPE), Setaria faberi (SETFA), Alopecurus myosuroides (ALOMY), Echinochloa crus-galli (ECHCG), Avena fatua (AVEFA)). After cultivation for one day (pre-emergence) or after 8 days cultivation (post-emergence) under controlled conditions in a glasshouse (at 24/16° C., day/night; 14 hours light; 65% humidity), the plants are sprayed with an aqueous spray solution derived from the formulation of the technical active ingredient in acetone/water (50:50) solution containing 0.5% Tween 20 (polyoxyethelyene sorbitan monolaurate, CAS RN 9005-64-5). Compounds are applied at […]. The test plants are then grown in a glasshouse under controlled conditions in a glasshouse (at 24/16° C., day/night; 14 hours light; 65% humidity) and watered twice daily. After 13 days for pre and post-emergence, the test is evaluated for the percentage damage caused to the plant. The biological activities are shown in the following table on a five point scale (5=80-100%; 4=60-79%; 3=40-59%; 2=20-39%; 1=0-19%).
# [2] = system: Setaria faberi (SETFA); experiment: Glasshouse herbicide test, pre- and post-emergence, Setaria faberi; conditions: 250 g/h, evaluated after 13 days; for SETFA POST, percentage damage caused to the plant (five point scale): post-emergence; for SETFA PRE, percentage damage caused to the plant (five point scale): pre-emergence
# Procedure: as §1
# [3] = system: Alopecurus myosuroides (ALOMY); experiment: Glasshouse herbicide test, pre- and post-emergence, Alopecurus myosuroides; conditions: 250 g/h, evaluated after 13 days; for ALOMY POST, percentage damage caused to the plant (five point scale): post-emergence; for ALOMY PRE, percentage damage caused to the plant (five point scale): pre-emergence
# Procedure: as §1
# [4] = system: Echinochloa crus-galli (ECHCG); experiment: Glasshouse herbicide test, pre- and post-emergence, Echinochloa crus-galli; conditions: 250 g/h, evaluated after 13 days; for ECHCG POST, percentage damage caused to the plant (five point scale): post-emergence; for ECHCG PRE, percentage damage caused to the plant (five point scale): pre-emergence
# Procedure: as §1
# [5] = system: Avena fatua (AVEFA); experiment: Glasshouse herbicide test, pre- and post-emergence, Avena fatua; conditions: 250 g/h, evaluated after 13 days; for AVEFA POST, percentage damage caused to the plant (five point scale): post-emergence; for AVEFA PRE, percentage damage caused to the plant (five point scale): pre-emergence
# Procedure: as §1
SMILES,"LOLPE POST, percentage damage caused to the plant (five point scale) [1]","LOLPE PRE, percentage damage caused to the plant (five point scale) [1]","SETFA POST, percentage damage caused to the plant (five point scale) [2]","SETFA PRE, percentage damage caused to the plant (five point scale) [2]","ALOMY POST, percentage damage caused to the plant (five point scale) [3]","ALOMY PRE, percentage damage caused to the plant (five point scale) [3]","ECHCG POST, percentage damage caused to the plant (five point scale) [4]","ECHCG PRE, percentage damage caused to the plant (five point scale) [4]","AVEFA POST, percentage damage caused to the plant (five point scale) [5]","AVEFA PRE, percentage damage caused to the plant (five point scale) [5]"
CC#Cc1ccc(C2C(=O)[C@@H]3[C@@H]4O[C@@H](C[C@H]4COC)[C@@H]3C2=O)c(OC)c1 (mixture of isomers) [Compound 1.15],5 (5=80-100%),5 (5=80-100%),5 (5=80-100%),5 (5=80-100%),5 (5=80-100%),5 (5=80-100%),5 (5=80-100%),5 (5=80-100%),5 (5=80-100%),5 (5=80-100%)
CC#Cc1ccc(C2C(=O)[C@@H]3[C@@H]4O[C@@H](C[C@@H]4C)[C@@H]3C2=O)c(OC)c1 (mixture of isomers) [Compound 1.3],5 (5=80-100%),5 (5=80-100%),5 (5=80-100%),5 (5=80-100%),5 (5=80-100%),5 (5=80-100%),5 (5=80-100%),5 (5=80-100%),5 (5=80-100%),5 (5=80-100%)
CC#Cc1ccc(C2C(=O)[C@@H]3[C@@H]4O[C@@H](C[C@@H]4CO)[C@@H]3C2=O)c(OC)c1 (mixture of isomers) [Compound 1.14],4 (4=60-79%),,5 (5=80-100%),,3 (3=40-59%),,5 (5=80-100%),,5 (5=80-100%),
CC#Cc1ccc(C2C(=O)[C@@H]3[C@@H]4O[C@@H](C[C@@H]4OC)[C@@H]3C2=O)c(OC)c1 (mixture of isomers) [Compound 1.25],5 (5=80-100%),5 (5=80-100%),5 (5=80-100%),5 (5=80-100%),5 (5=80-100%),5 (5=80-100%),5 (5=80-100%),5 (5=80-100%),5 (5=80-100%),5 (5=80-100%)
CC#Cc1ccc(C2=C(OC(=O)OC)[C@@H]3[C@H](C2=O)[C@@H]2O[C@H]3C[C@@H]2COC)c(OC)c1 (racemic) [Compound 1.28],5 (5=80-100%),5 (5=80-100%),5 (5=80-100%),5 (5=80-100%),5 (5=80-100%),5 (5=80-100%),5 (5=80-100%),5 (5=80-100%),5 (5=80-100%),5 (5=80-100%)
CC#Cc1ccc(C2C(=O)[C@@H]3[C@H](C2=O)[C@@]2(C)CC[C@]3(C)O2)c(OC)c1 (stereo partly shown) [Compound 1.11],5 (5=80-100%),4 (4=60-79%),5 (5=80-100%),3 (3=40-59%),5 (5=80-100%),5 (5=80-100%),5 (5=80-100%),3 (3=40-59%),5 (5=80-100%),3 (3=40-59%)
CC#Cc1ccc(C2C(=O)[C@H]3[C@@H]4C=C[C@@](C)(O4)[C@H]3C2=O)c(OC)c1 (mixture of isomers) [Compound 1.6],5 (5=80-100%),5 (5=80-100%),5 (5=80-100%),5 (5=80-100%),2 (2=20-39%),5 (5=80-100%),5 (5=80-100%),5 (5=80-100%),5 (5=80-100%),3 (3=40-59%)
"CC#Cc1ccc(C2C(=O)[C@@H]3[C@@H]4O[C@@H](C[C@@H]4COC)[C@@H]3C2=O)c(OC)c1 (stereo in doubt) [Compound 1.19, 8-methoxymethyl-4-[2-methoxy-4-(prop-1-yn-1-yl)phenyl]-10-oxatricyclo[5.2.1.0^2,6]decane-3,5-dione]",5 (5=80-100%),5 (5=80-100%),5 (5=80-100%),5 (5=80-100%),5 (5=80-100%),5 (5=80-100%),5 (5=80-100%),5 (5=80-100%),5 (5=80-100%),5 (5=80-100%)
CC#Cc1ccc(C2C(=O)[C@@H]3[C@H](C2=O)[C@@H]2O[C@H]3C[C@]2(C)OC)c(OC)c1 (mixture of isomers) [Compound 1.33],5 (5=80-100%),5 (5=80-100%),5 (5=80-100%),5 (5=80-100%),5 (5=80-100%),5 (5=80-100%),5 (5=80-100%),5 (5=80-100%),5 (5=80-100%),5 (5=80-100%)
CC#Cc1ccc(C2C(=O)[C@H]3[C@@H]4CC[C@@](C)(O4)[C@H]3C2=O)c(OC)c1 (stereo partly shown) [Compound 1.21],4 (4=60-79%),4 (4=60-79%),5 (5=80-100%),4 (4=60-79%),4 (4=60-79%),4 (4=60-79%),5 (5=80-100%),3 (3=40-59%),5 (5=80-100%),4 (4=60-79%)
CC#Cc1ccc(C2C(=O)[C@@H]3[C@H](C2=O)[C@H]2CC[C@@H]3O2)c(OCCC)c1 (mixture of isomers) [Compound 1.31],5 (5=80-100%),5 (5=80-100%),5 (5=80-100%),5 (5=80-100%),5 (5=80-100%),5 (5=80-100%),5 (5=80-100%),5 (5=80-100%),5 (5=80-100%),5 (5=80-100%)
CC#Cc1ccc(C2C(=O)[C@@H]3[C@H](C2=O)[C@H]2CC[C@@H]3O2)c(OCCOC)c1 (mixture of isomers) [Compound 1.32],5 (5=80-100%),4 (4=60-79%),5 (5=80-100%),3 (3=40-59%),4 (4=60-79%),1 (1=0-19%),5 (5=80-100%),3 (3=40-59%),5 (5=80-100%),4 (4=60-79%)

# — patent US20200113181A1, “HERBICIDAL COMPOUNDS” (SYNGENTA PARTICIPATIONS AG, priority 2016, published 2020)
